As a reminder, the pIC50 is the negative decadic logarithm of the IC50, by convention in mol/L.

pIC50: −log10 of the molar value.

This assay has as its target [35S]-TBPS binding, rat brain cortical membranes (GABAA receptor). Put plainly: Steroid inhibition of [35S]-TBPS binding. The settings on record: 3 nM [35S]-TBPS, in the presence of 5 mM GABA, 90 min at room temp. The protocol:
Steroid Inhibition of TBPS Binding
[^35S]-t-Butylbicyclophosphorothionate (TBPS) binding assays using rat brain cortical membranes in the presence of 5 mM GABA has been described (Gee et al, J. Pharmacol. Exp. Ther. 1987, 241, 346-353; Hawkinson et al, Mol. Pharmacol. 1994, 46, 977-985; Lewin, A. H et al., Mol. Pharmacol. 1989, 35, 189-194).
Briefly, cortices are rapidly removed following decapitation of carbon dioxide-anesthetized Sprague-Dawley rats (200-250 g). The cortices are homogenized in 10 volumes of ice-cold 0.32 M sucrose using a glass/teflon homogenizer and centrifuged at 1500×g for 10 min at 4° C. The resultant supernatants are centrifuged at 10,000×g for 20 min at 4° C. to obtain the P2 pellets. The P2 pellets are resuspended in 200 mM NaCl/50 mM Na—K phosphate pH 7.4 buffer and centrifuged at 10,000×g for 10 min at 4° C. This washing procedure is repeated twice and the pellets are resuspended in 10 volumes of buffer. Aliquots ([…]) of the membrane suspensions are incubated with 3 nM [^35S]-TBPS and […] aliquots of test drug dissolved in dimethyl sulfoxide (DMSO) (final 0.5%) in the presence of 5 mM GABA. The incubation is brought to a final volume of 1.0 mL with buffer. Nonspecific binding is determined in the presence of […] and ranged from 15 to 25%. Following a 90 min incubation at room temp, the assays are terminated by filtration through glass fiber filters (Schleicher and Schuell No. 32) using a cell harvester (Brandel) and rinsed three times with ice-cold buffer. Filter bound radioactivity is measured by liquid scintillation spectrometry. Non-linear curve fitting of the overall data for each drug averaged for each concentration is done using Prism (GraphPad). […] The concentration of test compound producing 50% inhibition (IC50) of specific binding and the maximal extent of inhibition (Imax) are determined for the individual experiments with the same model used for the overall data and then the means±SEM.s of the individual experiments are calculated.
Various compounds are or can be screened to determine their potential as modulators of [^35S]-TBPS binding in vitro. These assays are or can be performed in accordance with the above
In the case of `CCC[C@@]1(O)CC[C@H]2[C@H](CC[C@@H]3[C@@H]2CC[C@]2(C)[C@@H](C(=O)Nc4cnc(C#N)cn4)CC[C@@H]32)C1` [Compound 69, (3R,5R,8R,9R,10S,13S,14S,17S)—N-(5-cyanopyrazin-2-yl)-3-hydroxy-13-methyl-3-propylhexadecahydro-1H-cyclopenta[a]phenanthrene-17-carboxamide], the pIC50 was greater than 7.00. As for `COC[C@@]1(O)CC[C@@]2(C)[C@H](CC[C@@H]3[C@@H]2CC[C@]2(C)[C@@H](C(=O)Nc4ccc(C#N)cn4)CC[C@@H]32)C1` [Compound 70, (3R,5R,8R,9S,10S,13S,14S,17S)—N-(5-cyanopyridin-2-yl)-3-hydroxy-3-(methoxymethyl)-10,13-dimethylhexadecahydro-1H-cyclopenta[a]phenanthrene-17-carboxamide], the negative logarithm of the IC50 (pIC50) is greater than 7.00. The same measure for `COC[C@@]1(O)CC[C@H]2[C@H](CC[C@@H]3[C@@H]2CC[C@]2(C)[C@@H](C(=O)Nc4ccc(C#N)cn4)CC[C@@H]32)C1` [Compound 71, (3R,5R,8R,9R,10S,13S,14S,17S)—N-(5-cyanopyridin-2-yl)-3-hydroxy-3-(methoxymethyl)-13-methylhexadecahydro-1H-cyclopenta[a]phenanthrene-17-carboxamide]: greater than 7.00; for `COC[C@@]1(O)CC[C@@]2(C)[C@H](CC[C@@H]3[C@@H]2CC[C@]2(C)[C@@H](C(=O)Nc4cnc(C#N)cn4)CC[C@@H]32)C1` [Compound 72, (3R,5R,8R,9S,10S,13S,14S,17S)—N-(5-cyanopyrazin-2-yl)-3-hydroxy-3-(methoxymethyl)-10,13-dimethylhexadecahydro-1H-cyclopenta[a]phenanthrene-17-carboxamide]: greater than 7.00; for `COC[C@@]1(O)CC[C@H]2[C@H](CC[C@@H]3[C@@H]2CC[C@]2(C)[C@@H](C(=O)Nc4cnc(C#N)cn4)CC[C@@H]32)C1` [Compound 73, (3R,5R,8R,9R,10S,13S,14S,17S)—N-(5-cyanopyrazin-2-yl)-3-hydroxy-3-(methoxymethyl)-13-methylhexadecahydro-1H-cyclopenta[a]phenanthrene-17-carboxamide]: greater than 7.00.

In the case of `CCC[C@@]1(O)CC[C@@]2(C)[C@H](CC[C@@H]3[C@@H]2CC[C@]2(C)[C@@H](C(=O)Nc4cnc(C#N)cn4)CC[C@@H]32)C1` [Compound 74, (3R,5R,8R,9S,10S,13S,14S,17S)—N-(5-cyanopyrazin-2-yl)-3-hydroxy-10,13-dimethyl-3-propylhexadecahydro-1H-cyclopenta[a]phenanthrene-17-carboxamide], the negative logarithm of the IC50 (pIC50) was greater than 7.00. Consider `CCOC[C@@]1(O)CC[C@@]2(C)[C@H](CC[C@@H]3[C@@H]2CC[C@]2(C)[C@@H](C(=O)Nc4cnc(C#N)cn4)CC[C@@H]32)C1` [Compound 75, (3R,5R,8R,9S,10S,13S,14S,17S)—N-(5-cyanopyrazin-2-yl)-3-(ethoxymethyl)-3-hydroxy-10,13-dimethylhexadecahydro-1H-cyclopenta[a]phenanthrene-17-carboxamide], for which the pIC50 was greater than 7.00. The same measure for `CCOC[C@@]1(O)CC[C@H]2[C@H](CC[C@@H]3[C@@H]2CC[C@]2(C)[C@@H](C(=O)Nc4cnc(C#N)nc4)CC[C@@H]32)C1` [Compound 76, (3R,5R,8R,9R,10S,13S,14S,17S)—N-(2-cyanopyrimidin-5-yl)-3-(ethoxymethyl)-3-hydroxy-13-methylhexadecahydro-1H-cyclopenta[a]phenanthrene-17-carboxamide]: greater than 7.00; for `CCOC[C@@]1(O)CC[C@H]2[C@H](CC[C@@H]3[C@@H]2CC[C@]2(C)[C@@H](C(=O)Nc4cc(C#N)ncn4)CC[C@@H]32)C1` [Compound 77, (3R,5R,8R,9R,10S,13S,14S,17S)—N-(6-cyanopyrimidin-4-yl)-3-(ethoxymethyl)-3-hydroxy-13-methylhexadecahydro-1H-cyclopenta[a]phenanthrene-17-carboxamide]: greater than 7.00; for `CCOC[C@@]1(O)CC[C@H]2[C@H](CC[C@@H]3[C@@H]2CC[C@]2(C)[C@@H](C(=O)Nc4ccnc(C#N)n4)CC[C@@H]32)C1` [Compound 78, (3R,5R,8R,9R,10S,13S,14S,17S)—N-(2-cyanopyrimidin-4-yl)-3-(ethoxymethyl)-3-hydroxy-13-methylhexadecahydro-1H-cyclopenta[a]phenanthrene-17-carboxamide]: greater than 7.00. With `CCOC[C@@]1(O)CC[C@H]2[C@H](CC[C@@H]3[C@@H]2CC[C@]2(C)[C@@H](C(=O)Nc4nccc(C#N)n4)CC[C@@H]32)C1` [Compound 79, (3R,5R,8R,9R,10S,13S,14S,17S)—N-(4-cyanopyrimidin-2-yl)-3-(ethoxymethyl)-3-hydroxy-13-methylhexadecahydro-1H-cyclopenta[a]phenanthrene-17-carboxamide], the pIC50 is 6.00 to 7.00. `CCC[C@@]1(O)CC[C@H]2[C@H](CC[C@@H]3[C@@H]2CC[C@]2(C)[C@@H](C(=O)Nc4ccc(F)cn4)CC[C@@H]32)C1` [Compound 81, (3R,5R,8R,9R,10S,13S,14S,17S)—N-(5-fluoropyridin-2-yl)-3-hydroxy-13-methyl-3-propylhexadecahydro-1H-cyclopenta[a]phenanthrene-17-carboxamide]: the negative-log IC50 (pIC50) is greater than 7.00. Regarding `CCOC[C@@]1(O)CC[C@H]2[C@H](CC[C@@H]3[C@@H]2CC[C@]2(C)[C@@H](C(=O)Nc4ncc(C#N)cn4)CC[C@@H]32)C1` [Compound 82, (3R,5R,8R,9R,10S,13S,14S,17S)—N-(5-cyanopyrimidin-2-yl)-3-(ethoxymethyl)-3-hydroxy-13-methylhexadecahydro-1H-cyclopenta[a]phenanthrene-17-carboxamide], the pIC50 is 6.00 to 7.00. The same measure for `CCC[C@@]1(O)CC[C@H]2[C@H](CC[C@@H]3[C@@H]2CC[C@]2(C)[C@@H](C(=O)Nc4cncc(C#N)n4)CC[C@@H]32)C1` [Compound 83, (3R,5R,8R,9R,10S,13S,14S,17S)—N-(6-cyanopyrazin-2-yl)-3-hydroxy-13-methyl-3-propylhexadecahydro-1H-cyclopenta[a]phenanthrene-17-carboxamide]: greater than 7.00; for `CCC[C@@]1(O)CC[C@H]2[C@H](CC[C@@H]3[C@@H]2CC[C@]2(C)[C@@H](C(=O)Nc4cc(C#N)ncn4)CC[C@@H]32)C1` [Compound 84, (3R,5R,8R,9R,10S,13S,14S,17S)—N-(6-cyanopyrimidin-4-yl)-3-hydroxy-13-methyl-3-propylhexadecahydro-1H-cyclopenta[a]phenanthrene-17-carboxamide]: greater than 7.00. Turning to `C[C@H]1C[C@H]2[C@H](CC[C@@H]3[C@@H]2CC[C@]2(C)[C@@H](C(=O)Nc4ccc(C#N)nc4)CC[C@@H]32)C[C@]1(C)O` [Compound 85, (2S,3S,5R,8R,9R,10S,13S,14S,17S)—N-(6-cyanopyridin-3-yl)-3-hydroxy-2,3,13-trimethylhexadecahydro-1H-cyclopenta[a]phenanthrene-17-carboxamide], the pIC50 was greater than 7.00. Turning to `CCC[C@@]1(O)CC[C@H]2[C@H](CC[C@@H]3[C@@H]2CC[C@]2(C)[C@@H](C(=O)Nc4cnc(C#N)nc4)CC[C@@H]32)C1` [Compound 86, (3R,5R,8R,9R,10S,13S,14S,17S)—N-(2-cyanopyrimidin-5-yl)-3-hydroxy-13-methyl-3-propylhexadecahydro-1H-cyclopenta[a]phenanthrene-17-carboxamide], the pIC50 is 6.00 to 7.00.

With `CCC[C@@]1(O)CC[C@H]2[C@H](CC[C@@H]3[C@@H]2CC[C@]2(C)[C@@H](C(=O)Nc4ccnc(C#N)n4)CC[C@@H]32)C1` [Compound 87, (3R,5R,8R,9R,10S,13S,14S,17S)—N-(2-cyanopyrimidin-4-yl)-3-hydroxy-13-methyl-3-propylhexadecahydro-1H-cyclopenta[a]phenanthrene-17-carboxamide], the pIC50 is greater than 7.00.

As to `C[C@H]1C[C@H]2[C@H](CC[C@@H]3[C@@H]2CC[C@]2(C)[C@@H](C(=O)Nc4cnc(C#N)cn4)CC[C@@H]32)C[C@]1(C)O` [Compound 88, (2S,3S,5R,8R,9R,10S,13S,14S,17S)—N-(5-cyanopyrazin-2-yl)-3-hydroxy-2,3,13-trimethylhexadecahydro-1H-cyclopenta[a]phenanthrene-17-carboxamide], the pIC50 is greater than 7.00.

These data come from US20230250129A1, “NEUROACTIVE STEROIDS AND COMPOSITIONS THEREOF” (Sage Therapeutics, Inc., priority 2020, published 2023).
